{"source": "patent US12122833B2", "about": "“Combination therapies of HDAC inhibitors and PD-1 inhibitors” (HUYABIO International, LLC, priority 2016, dated 2024)", "key": {"[1]": {"test_system": "MC38 murine colon carcinoma cells", "assay": "Example 2: tumor growth delay, MC38 tumors (5×10^5 cells) in C57BL/6 mice", "assay_type": "in vivo, mouse", "settings": "HBI-8000 50 mg/kg p.o. qd×21, anti-PD-1 5 mg/kg i.p. biwk×3", "description": "Animals that exited the study for tumor volume endpoint were documented as euthanized for tumor progression (TP), with the date of euthanasia. The time to endpoint (TTE) for analysis was calculated for each mouse by the following equation:\n[formula] where TTE is expressed in days, endpoint volume is expressed in mm^3, b is the intercept, and m is the slope of the line obtained by linear regression of a log-transformed tumor growth data set. The data set consisted of the first observation that exceeded the endpoint volume used in analysis and the three consecutive observations that immediately preceded the attainment of this endpoint volume. The calculated TTE is usually less than the TP date, the day on which the animal was euthanized for tumor burden. […] In instances in which the log-transformed calculated TTE preceded the day prior to reaching endpoint or exceeded the day of reaching tumor volume endpoint, a linear interpolation was performed to approximate the TTE. […]\nTreatment Outcome: Treatment outcome was evaluated from tumor growth delay (TGD), which is defined as the increase in the median time to endpoint (TTE) in a treatment group compared to the control group: TGD=T−C expressed in days, or as a percentage of the median TTE of the control group: […]\nTreatment Efficacy: Treatment efficacy may be determined from the tumor volumes of animals remaining in the study on the last day. […]"}, "[2]": {"test_system": "4T1 murine mammary carcinoma", "assay": "Example 4: lung metastatic foci count, orthotopic 4T1 murine mammary carcinoma in BALB/c mice", "assay_type": "in vivo, mouse", "settings": "day 14; HBI-8000 50 mg/kg p.o. qd×13; anti-PD-1 5 mg/kg i.p. biwk×2; vs vehicle control (35.0±2.17 foci)", "description": "In this Example 4, antitumor responses induced by HBI-8000, administered alone and in combination with anti-PD-1 RMP1-14 (anti-PD-1) were characterized in the 4T1 murine mammary carcinoma xenograft model in BALB/c mice. The impact of these therapies on lung metastasis was evaluated.\nTreatments began on Day (D) 1 in BALB/c mice bearing established 4T1 tumors. HBI-8000 was administered orally (p.o.) and anti-PD-1 was administered intraperitoneally (i.p.), at a single dose level. Test agents were administered alone and in combination with HBI-8000. Control animals received vehicle. The study ended on D14 as the endpoint for metastatic foci was reached. Treatment response was determined based on metastases counts taken from animals remaining on D14.\nIn Vivo Implantation and Tumor Growth: 4T1 tumor cells were harvested during exponential growth and resuspended in PBS. […] Tumor growth was monitored as the average size of tumors approached the target range of 80-120 mm3. […]\nResults were analyzed by counting the lung metastatic foci on D14, the last day of the study. […] Percent inhibition was defined as the difference between the number of metastatic foci of the designated control group and the number of metastatic foci of the drug-treated group, expressed as a percentage of the number of metastatic foci of the designated control group: […]"}, "HDAC 1": {"target": "HDAC 1 (Homo sapiens, UniProt Q13547)", "sequence (Q13547 whole entry)": "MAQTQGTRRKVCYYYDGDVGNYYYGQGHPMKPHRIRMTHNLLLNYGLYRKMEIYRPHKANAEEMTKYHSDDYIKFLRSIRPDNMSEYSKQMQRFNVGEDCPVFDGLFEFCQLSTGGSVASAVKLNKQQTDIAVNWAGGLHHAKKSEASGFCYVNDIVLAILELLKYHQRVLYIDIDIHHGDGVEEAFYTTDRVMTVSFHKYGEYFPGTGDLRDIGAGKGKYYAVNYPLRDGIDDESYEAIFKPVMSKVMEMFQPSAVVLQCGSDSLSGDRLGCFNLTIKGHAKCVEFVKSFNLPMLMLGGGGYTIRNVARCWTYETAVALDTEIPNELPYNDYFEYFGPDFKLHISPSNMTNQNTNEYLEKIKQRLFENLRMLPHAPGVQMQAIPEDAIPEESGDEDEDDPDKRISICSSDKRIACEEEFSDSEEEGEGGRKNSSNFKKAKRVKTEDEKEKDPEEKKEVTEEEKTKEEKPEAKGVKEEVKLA", "settings": "reported by Ning et al.; cited from earlier work"}, "HDAC 3": {"target": "HDAC 3 (Homo sapiens, UniProt O15379)", "sequence (O15379 whole entry)": "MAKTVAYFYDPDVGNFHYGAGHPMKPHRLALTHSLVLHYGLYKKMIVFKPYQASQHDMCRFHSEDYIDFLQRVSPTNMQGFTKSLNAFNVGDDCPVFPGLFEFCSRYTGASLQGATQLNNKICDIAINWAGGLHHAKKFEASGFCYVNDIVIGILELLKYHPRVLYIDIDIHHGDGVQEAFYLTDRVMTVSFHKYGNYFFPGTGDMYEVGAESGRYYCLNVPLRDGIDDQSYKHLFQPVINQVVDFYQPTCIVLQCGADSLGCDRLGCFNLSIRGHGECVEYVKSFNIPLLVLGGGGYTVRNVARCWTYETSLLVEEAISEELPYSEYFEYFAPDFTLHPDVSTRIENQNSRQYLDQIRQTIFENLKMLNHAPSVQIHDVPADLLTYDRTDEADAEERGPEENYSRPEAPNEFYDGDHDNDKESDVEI", "sequence (Q9Y618 395-489 partner limits assumed)": "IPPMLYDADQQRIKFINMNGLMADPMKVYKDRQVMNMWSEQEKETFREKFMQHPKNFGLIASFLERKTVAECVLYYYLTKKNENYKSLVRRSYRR", "settings": "reported by Ning et al.; cited from earlier work"}}}
{"smiles": "Nc1cc(F)ccc1NC(=O)c1ccc(CNC(=O)/C=C/c2cccnc2)cc1", "note": "[HBI-8000, N-(2-amino-4-fluorophenyl)-4-[[[(2E)-1-oxo-3-(3-pyridinyl)-2-propen-1-yl]amino]methyl]benz amide]", "values": [{"measurement": "Median TTE", "setting": "[1]; endpoint 1000 mm^3 or Day 50, n=10", "value": 19.4, "unit": "days"}, {"measurement": "% TGD", "setting": "[1]; vs vehicle", "value": 19, "unit": "%"}, {"measurement": "inhibition of lung metastatic foci", "setting": "[2]", "value": "−26", "unit": "%"}, {"measurement": "activity at HDAC 1 compared with Entinostat", "setting": "HDAC 1", "value": "more active than Entinostat"}, {"measurement": "inhibition of HDAC 1", "setting": "HDAC 1", "value": "low nanomolar concentrations"}, {"measurement": "activity at HDAC 3 compared with Entinostat", "setting": "HDAC 3", "value": "more active than Entinostat"}, {"measurement": "inhibition of HDAC 3", "setting": "HDAC 3", "value": "low nanomolar concentrations"}]}
